Experimental data from patent publication US20260217660A1, “INHIBITORS OF ACTIVIN RECEPTOR TYPE I (ACVRI) AND ACTIVIN RECEPTOR LIKE TYPE I (ACVRLI), AND METHODS USING SAME” (Baylor College of Medicine, priority 2023, published 2026).
Changes are numbered by the printed parent chain.

How the values were obtained:
[1] = target: T1, ACVR1^WT (Homo sapiens, UniProt Q04771); assay: Promega NanoBRET live-cell target engagement, ACVR1; format: cell-based; conditions: in cellulo; NI = No inhibition at 40 μM
T1 sequence (Q04771 21-509): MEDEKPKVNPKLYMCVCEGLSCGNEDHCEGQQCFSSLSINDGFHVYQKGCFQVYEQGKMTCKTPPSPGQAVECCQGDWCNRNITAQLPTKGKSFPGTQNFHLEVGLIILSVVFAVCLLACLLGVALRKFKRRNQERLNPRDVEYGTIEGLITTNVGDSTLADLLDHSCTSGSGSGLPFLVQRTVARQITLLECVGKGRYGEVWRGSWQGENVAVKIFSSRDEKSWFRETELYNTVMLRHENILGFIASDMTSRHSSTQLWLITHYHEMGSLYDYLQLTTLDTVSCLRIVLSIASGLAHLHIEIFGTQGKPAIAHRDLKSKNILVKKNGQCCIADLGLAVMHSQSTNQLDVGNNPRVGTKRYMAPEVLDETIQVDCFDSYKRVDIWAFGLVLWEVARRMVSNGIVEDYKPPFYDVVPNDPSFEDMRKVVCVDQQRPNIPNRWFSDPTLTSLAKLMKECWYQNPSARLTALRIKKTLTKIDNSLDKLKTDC
From the text: (§1) The Promega NanoBRET target engagement system involves cell-based competitive displacement of a fluorescent NanoBRET tracer bound reversibly to a NanoLuc fusion protein. Test compounds displace the tracer dependent on their affinity for the target and reduce […] the NanoBRET signal. […]

[2] = target: T2, ACVR1^R206H (Homo sapiens, UniProt Q04771, R206H); assay: Promega NanoBRET live-cell target engagement, ACVR1 (R206H); format: cell-based; conditions: in cellulo; NI = No inhibition at 40 μM
T2 sequence (Q04771 21-509 R206H): T1 sequence (Q04771 21-509) with R186H
From the text: as §1

[3] = Metabolic stability in mouse liver microsomes; format: in vitro ADME; conditions: some cells add hours in brackets
From the text: (§2) Exemplary compounds of the present disclosure have been evaluated for metabolic stability in mouse and human liver microsomes.

[4] = Metabolic stability in human liver microsomes; format: in vitro ADME; conditions: some cells add hours in brackets
From the text: as §2

[5] = system: BMP2-induced luciferase activity in 293T-BRE-reporter cells; assay: BMP2-induced luciferase reporter activity in 293T-BRE reporter cells; format: cell-based; conditions: 0.2, 1, 5, 25 μM, 30 min pre-treatment, 5 ng/ml BMP2, 6 hours
Description: BMP2-dependent luciferase reporter activation was quantified after 6 hours using the Promega BrightGLO luciferase system on a Tecan Infinity M1000 Pro plate reader.
FIG. 10 provides a bar graph depicting inhibition of BMP2-induced luciferase activity in 293T-BRE-reporter cells. Approximately 20,000 cells per well were plated in a 96-well plate and allowed to attach overnight. […] Cells were then stimulated with vehicle or 5 ng/ml BMP2 for 6 hours. Luciferase transactivation was assessed using the Promega BrightGLO luciferase system (Promega) and the signal was quantified using a plate reader (M1000 Pro).

[6] = system: pSMAD1/5 in FOP fibroblasts (FOP GM00513); assay: BMP2-induced pSMAD1/5 Western blot in primary FOP fibroblasts; format: cell-based, human; conditions: 1, 5, 25 μM, 30 min pre-treatment, 5 ng/mL BMP2 45 min
Description: (§3) FIG. 11 depicts inhibition of phosphorylated SMAD1/5 (pSMAD1/5) in primary WT and FOP fibroblasts. […] Subsequently, the fibroblasts were treated with vehicle (i.e., DMSO) or 5 ng/mL BMP2 in the presence of the inhibitors for 45 minutes. Cell lysates were then probed with antibodies against pSMAD1/5, total SMAD5, total SMAD1, and GAPDH (i.e., loading control) using a Western blot.

[7] = system: pSMAD1/5 in WT fibroblasts (WT GM01652); assay: BMP2-induced pSMAD1/5 Western blot in primary WT fibroblasts; format: cell-based, human; conditions: 1, 5, 25 μM, 30 min pre-treatment, 5 ng/mL BMP2 45 min
Description: as §3

[8] = target: T3, ACVR1 (Homo sapiens, UniProt Q04771); assay: ThermoFisher (Lantha) kinase assay, inhibition of ACVR1; format: biochemical; conditions: ThermoFisher Assay, in vitro
T3 construct: purchased ThermoFisher
T3 sequence (Q04771 21-509): T1 sequence (Q04771 21-509)

[9] = target: T4, ACVRL1 (Homo sapiens, UniProt P37023); assay: ThermoFisher (Lantha) kinase assay, inhibition of ACVRL1; format: biochemical; conditions: in vitro, NA = not active at 1 μM
T4 construct: purchased ThermoFisher
T4 sequence (P37023 22-503): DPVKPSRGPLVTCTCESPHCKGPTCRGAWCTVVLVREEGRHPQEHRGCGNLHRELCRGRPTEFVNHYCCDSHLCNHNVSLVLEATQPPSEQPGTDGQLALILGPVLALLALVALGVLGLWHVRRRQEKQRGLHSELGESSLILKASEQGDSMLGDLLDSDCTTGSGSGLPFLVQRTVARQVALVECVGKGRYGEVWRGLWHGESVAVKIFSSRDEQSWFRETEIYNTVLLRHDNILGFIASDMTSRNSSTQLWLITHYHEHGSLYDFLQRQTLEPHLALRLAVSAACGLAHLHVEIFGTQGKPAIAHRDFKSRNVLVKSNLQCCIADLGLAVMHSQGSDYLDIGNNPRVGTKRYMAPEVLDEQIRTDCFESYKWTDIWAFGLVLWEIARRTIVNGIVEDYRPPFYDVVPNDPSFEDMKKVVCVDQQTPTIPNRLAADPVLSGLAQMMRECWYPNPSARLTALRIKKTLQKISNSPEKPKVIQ

[10] = target: T4, ACVRL1; assay: Promega NanoBRET live-cell target engagement, ACVRL1; format: cell-based; conditions: in cellulo; NI = No inhibition at 40 μM
From the text: The Promega NanoBRET target engagement system involves cell-based competitive displacement of a fluorescent NanoBRET tracer bound reversibly to a NanoLuc fusion protein. Test compounds displace the tracer dependent on their affinity for the target and reduce loss of the NanoBRET signal.
Further, HEK29T cells with stable expression of a BMP reporter element driving luciferase expression can be used to test inhibition of BMP-induced luciferase transactivation. […] Additionally, utilizing the HEPG2 cell system described herein, responsiveness to activin and induction of Hepcidin (HAMP) gene expression can be probed in the presence and absence of ACVR1 inhibitors, as well as the influence of tacrolimus on activin-induced hepcidin gene expression.
Thus, the in cellulo assays described herein comprise a luciferase reporter cell line system.

Row | Compound | IC50 [1] | IC50 [2] | Metabolism MLM (Min) [3] | Metabolism HLM (Min) [4] | Metabolism MLM [3] | Metabolism HLM [4] | IC50 [8] | IC50 [9] | IC50 [10] | inhibition of BMP2-induced luciferase activity [5] | suppression of BMP2-induced pSMAD1/5 activation, FOP fibroblasts [6] | suppression of BMP2-induced pSMAD1/5 activation, WT fibroblasts [7]
1 | CNC(=O)[C@H]1C[C@H](n2c(-c3cc(OC)c(OC)c(OC)c3)nc3ccc(C(=O)NCCCN(C)C)cc32)C1 [CDD-2281, N-(3-(dimethylamino)propyl)-1-((1r,3r)-3-(methylcarbamoyl)cyclobutyl)-2-(3,4,5-trimethoxyphenyl)-1H-benzo[d]imidazole-6-carboxamide] | > 40000 nM | > 40000 nM | 807.1 (13.4 h) Min | 769.1 (12.81 h) Min | – | – | – | – | – | – | – | –
2 | CNC(=O)[C@H]1C[C@H](n2c(-c3cc(OC)c(OC)c(OC)c3)nc3ccc(C(=O)NCC4CCN(C)CC4)cc32)C1 [CDD-2282, 1-((1r,3r)-3-(methylcarbamoyl)cyclobutyl)-N-((1-methylpiperidin-4-yl)methyl)-2-(3,4,5-trimethoxyphenyl)-1H-benzo[d]imidazole-6-carboxamide] | > 40000 nM | > 40000 nM | 220.4 (3.67 h) Min | 978 (16.3 h) Min | – | – | – | – | – | – | – | –
3 | CNC(=O)[C@H]1C[C@H](n2c(-c3cccc(OC)c3)nc3ccc(C(=O)NCCCN4CCN(c5ccccc5)CC4)cc32)C1 [CDD-2313, 2-(3-methoxyphenyl)-1-((1r,3r)-3-(methylcarbamoyl)cyclobutyl)-N-(3-(4-phenylpiperazin-1-yl)propyl)-1H-benzo[d]imidazole-6-carboxamide] | 6170 nM | 3400 nM | – | – | 8.6 min | 23 min | – | – | – | – | – | –
4 | COc1cc(-c2nc3ccc(C(=O)NCCCN4CCN(c5ccccc5)CC4)cc3n2C2CCC2)cc(OC)c1OC [CDD-2315, 1-cyclobutyl-N-(3-(4-phenylpiperazin-1-yl)propyl)-2-(3,4,5-trimethoxyphenyl)-1H-benzo[d]imidazole-6-carboxamide] | 560 nM | 2600 nM | – | – | 6.3 min | 7.8 min | – | – | – | Potent inhibition | suppressed | suppressed
5 | CNC(=O)[C@H]1C[C@H](n2c(-c3cc(F)cc(OC)c3)nc3ccc(C(=O)NCCCN4CCN(c5ccccc5)CC4)cc32)C1 [CDD-2340, 2-(3-fluoro-5-methoxyphenyl)-1-((1r,3r)-3-(methylcarbamoyl)cyclobutyl)-N-(3-(4-phenylpiperazin-1-yl)propyl)-1H-benzo[d]imidazole-6-carboxamide] | 5300 nM | 9200 nM | – | – | 7.1 min | 24.4 min | – | – | – | Potent inhibition | suppressed | suppressed
6 | N-(3-(4-benzoylpiperazin-1-yl)propyl)-1-cyclobutyl-2-(3,4,5-trimethoxyphenyl)-1H-benzo[d]imidazole-6-carboxamide [CDD-2791] | 1080 nM | 2600 nM | – | – | 2.8 min | 15.4 min | 7.9 nM | 14.6 nM | > 40000 nM | – | – | –

More lines, main results first:

Row | IC50 [1] | IC50 [2] | Metabolism MLM (Min) [3] | Metabolism HLM (Min) [4] | Metabolism MLM [3] | Metabolism HLM [4] | IC50 [8] | IC50 [9] | IC50 [10] | Compound | inhibition of BMP2-induced luciferase activity [5] | suppression of BMP2-induced pSMAD1/5 activation, FOP fibroblasts [6] | suppression of BMP2-induced pSMAD1/5 activation, WT fibroblasts [7]
7 | 1240 nM | 2400 nM | – | – | 3.7 min | 6 min | – | – | – | CNC(=O)[C@H]1C[C@H](n2c(-c3ccc(OC)c(OC)c3)nc3ccc(C(=O)NCCCN4CCN(c5cccc(C)c5C)CC4)cc32)C1 [CDD-2421, 2-(3,4-dimethoxyphenyl)-N-(3-(4-(2,3-dimethylphenyl)piperazin-1-yl)propyl)-1-((1r,3r)-3-(methylcarbamoyl)cyclobutyl)-1H-benzo[d]imidazole-6-carboxamide] | – | – | –
8 | 10700 nM | 13400 nM | 78.5 (1.3 h) Min | 194 (3.2 h) Min | – | – | – | – | – | COc1cc(F)cc(-c2nc3ccc(C(=O)NCCCN(C)C)cc3n2C2CCC2)c1 [CDD-2617, 1-cyclobutyl-N-(3-(dimethylamino)propyl)-2-(3-fluoro-5-methoxyphenyl)-1H-benzo[d]imidazole-6-carboxamide] | – | – | –
9 | 28200 nM | 29600 nM | – | – | – | – | 34.3 nM | 72.2 nM | > 40000 nM | CNC(=O)[C@H]1C[C@H](n2c(-c3cc(OC)cc(OC)c3)nc3ccc(C(=O)NCCCN(C)C)cc32)C1 [CDD-2686, 2-(3,5-dimethoxyphenyl)-N-(3-(dimethylamino)propyl)-1-((1r,3r)-3-(methylcarbamoyl)cyclobutyl)-1H-benzo[d]imidazole-6-carboxamide] | – | – | –
10 | > 40000 nM | > 40000 nM | – | – | – | – | 25.1 nM | 78.7 nM | > 40000 nM | CNC(=O)[C@H]1C[C@H](n2c(-c3cc(OC)ccc3OC)nc3ccc(C(=O)NCCCN(C)C)cc32)C1 [CDD-2687, 2-(2,5-dimethoxyphenyl)-N-(3-(dimethylamino)propyl)-1-((1r,3r)-3-(methylcarbamoyl)cyclobutyl)-1H-benzo[d]imidazole-6-carboxamide] | – | – | –
11 | 473 nM | 705 nM | – | – | 3.3 min | 9.8 min | – | – | – | COc1cc(-c2nc3ccc(C(=O)NCCCN4CCN(c5ccccn5)CC4)cc3n2C2CCC2)cc(OC)c1OC [CDD-2787, 1-cyclobutyl-N-(3-(4-(pyridin-2-yl)piperazin-1-yl)propyl)-2-(3,4,5-trimethoxyphenyl)-1H-benzo[d]imidazole-6-carboxamide] | Potent inhibition | suppressed | suppressed
12 | 1820 nM | 2270 nM | – | – | 6.1 min | 9.0 min | – | – | – | COc1cc(-c2nc3ccc(C(=O)NCCCN4CCN(c5ccccc5)C(=O)C4)cc3n2C2CCC2)cc(OC)c1OC [CDD-2790, 1-cyclobutyl-N-(3-(3-oxo-4-phenylpiperazin-1-yl)propyl)-2-(3,4,5-trimethoxyphenyl)-1H-benzo[d]imidazole-6-carboxamide] | – | – | –
13 | 358 nM | 849 nM | – | – | 10 min | 38.3 min | – | – | – | COc1cc(-c2nc3ccc(C(=O)NCCCN4CCN(C5CCCCC5)CC4)cc3n2C2CCC2)cc(OC)c1OC [CDD-2792, 1-cyclobutyl-N-(3-(4-cyclohexylpiperazin-1-yl)propyl)-2-(3,4,5-trimethoxyphenyl)-1H-benzo[d]imidazole-6-carboxamide] | – | – | –
